Source: patent US6596772B1, “Phosphate mimics and methods of treatment using phosphatase inhibitors” (Sugen, Inc., priority 1999, dated 2003)

Experiments:
Assay in all cases: PTP IC50 assay, fluorescent substrate DiFMUP
Format in all cases: biochemical
PTP SHP2 = target: T1, PTP SHP2 (Homo sapiens, UniProt Q06124); conditions: DiFMUP as substrate, 25° C.; read-out: PTP IC50 SHP2
T1 construct: The catalytic domain was amplified using the following oligonucleotides; made in house; host or cells: Sf-9 insect cells (pFastBac-G2T)
T1 sequence (Q06124 247-517 limits assumed): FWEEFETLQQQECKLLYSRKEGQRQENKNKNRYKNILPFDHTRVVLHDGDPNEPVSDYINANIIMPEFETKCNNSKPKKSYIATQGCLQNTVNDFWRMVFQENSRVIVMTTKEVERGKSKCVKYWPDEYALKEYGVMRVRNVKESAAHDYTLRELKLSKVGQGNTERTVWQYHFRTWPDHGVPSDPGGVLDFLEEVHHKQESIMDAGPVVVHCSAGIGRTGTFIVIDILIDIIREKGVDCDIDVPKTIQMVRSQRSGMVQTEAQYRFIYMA
Source text: SHP-2 cDNA was used as described earlier (Vogel W., et al.,1993, Science, 259:1611-4). The catalytic domain was amplified using the following oligonucleotides 5′oligo: 5′-[…]-3′ (SEQ ID NO: 2) 3′oligo: 5′-[…]-3′ (SEQ ID NO: 3) and subsequently subcloned into BamH1-Xba-1 sites. It was then ligated into pfas Bac-G2T BamH1-Xba-1 sites.
(§1) The following in vitro assay procedure is preferred to determine the level of activity and effect of the different compounds of the present invention on one or more of the PTPs. Similar assays can be designed along the same lines for any PTP using techniques well known in the art.
(§2) The catalytic assays described herein are performed in a 96-well format. The general procedure begins with the determination of PTP optimal pH using a three-component buffer system that minimizes ionic strength variations across a wide range of buffer pH. Next, the Michaelis-Menten constant, or Km, is determined for the substrate 6,8-difluoro-4-methylumbelliferyl phosphate (DiFMUP). This Km value is subsequently used as the substrate reaction concentration for compound screening. Finally, the test PTP is exposed to varying concentrations of compound for fifteen minutes and allowed to react with substrate for ten minutes. The results are plotted as percent inhibition versus compound concentration and the IC50 interpolated from the plot.
(§3) All assays were performed using DiFMUP as substrate. The optimum pH and substrate Km was determined for each PTP used.
(§4) PTPase activity was assayed at 25° C. in a 100-μl reaction mixture containing an appropriate concentration of DiFMUP as substrate. The reaction was initiated by addition of the purified PTP and quenched after 10 min by addition of 1% H2O2/100 mM NaCl. The non-enzymatic hydrolysis of the substrate was corrected by measuring the control without the addition of the enzyme. The amount of DiFMU produced was determined from the increase in the fluorescence (360 nm excitation/460 nm emission) over that of background in the absence of PTPase. To determine the kinetic parameter, Km, the initial velocities were measured at various substrate concentrations and the data were fitted to the Michaelis equation where velocity=(Vmax*[S])/(Km+[S]), and [S]=substrate reaction concentration.
(§5) The effect of the compounds on PTP was evaluated at 25° C. using DiFMUP as substrate. PTP was pre-incubated for fifteen minutes with various concentrations of compound. Substrate was then added at a fixed concentration (usually equal to the Km previously calculated). After 10 minutes, the reaction was quenched. The hydrolysis of DiFMUP was followed as described above. The percent inhibition was calculated as follows: Percent Inhibition=[(control signal−compound signal)/control signal]×100%. The IC50 was then determined by interpolation of a percent inhibition versus compound concentration plot.
(§6) Plasmids designed for bacterial GST-PTP fusion protein expression were derived by insertion of PCR-generated human PTP fragments into pGEX vectors (Pharmacia Biotech). Several of these constructs were then used to subclone phosphatases into pFastBac-1 for expression in Sf-9 insect cells. Oligonucleotides used for the initial amplification of PTP genes are as described above. The cDNAs were prepared using the Gilbo BRL superscript preamplification system on RNAs purchased from Clontech.

PTP EPSILON = target: T2, PTP EPSILON (Homo sapiens, UniProt P23469); conditions: DiFMUP as substrate, 25° C.; read-out: PTP IC50 Epilson
T2 construct: made in house; host or cells: Sf-9 insect cells (pFastBac-G2T); a pGEX 6P-1 construct also existed
T2 sequence (P23469 80-393 limits assumed): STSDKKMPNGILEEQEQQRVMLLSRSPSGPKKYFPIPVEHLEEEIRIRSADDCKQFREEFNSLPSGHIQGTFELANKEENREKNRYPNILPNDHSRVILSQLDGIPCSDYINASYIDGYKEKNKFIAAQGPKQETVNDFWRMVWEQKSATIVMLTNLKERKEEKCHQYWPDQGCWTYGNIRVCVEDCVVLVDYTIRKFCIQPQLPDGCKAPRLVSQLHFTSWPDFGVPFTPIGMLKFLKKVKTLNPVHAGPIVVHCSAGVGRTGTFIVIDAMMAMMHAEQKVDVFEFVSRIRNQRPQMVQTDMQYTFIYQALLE
Source text: The PTPepsilon cDNA was amplified from human placenta single-strand cDNA (Clontech RNA) using the following oligonucleotides: 5′oligo: 5′-[…]-3′ (SEQ ID NO: 6) 3′oligo: 5′-[…]-3′ (SEQ ID NO: 7) After cloning this PCR product into the Bam HI/Xho I sites of pGEX 6P-1, this phosphatase was subcloned using the same restriction sites in pFastBac-G2T.
as §1, §2, §3, §4, §5, §6

PTP 1B = target: T3, PTP 1B (Homo sapiens, UniProt P18031); conditions: DiFMUP as substrate, 25° C.; read-out: PTP IC50 1B
T3 construct: made in house; host or cells: Sf-9 insect cells (pFastBac-G2T)
T3 sequence (P18031 1-435): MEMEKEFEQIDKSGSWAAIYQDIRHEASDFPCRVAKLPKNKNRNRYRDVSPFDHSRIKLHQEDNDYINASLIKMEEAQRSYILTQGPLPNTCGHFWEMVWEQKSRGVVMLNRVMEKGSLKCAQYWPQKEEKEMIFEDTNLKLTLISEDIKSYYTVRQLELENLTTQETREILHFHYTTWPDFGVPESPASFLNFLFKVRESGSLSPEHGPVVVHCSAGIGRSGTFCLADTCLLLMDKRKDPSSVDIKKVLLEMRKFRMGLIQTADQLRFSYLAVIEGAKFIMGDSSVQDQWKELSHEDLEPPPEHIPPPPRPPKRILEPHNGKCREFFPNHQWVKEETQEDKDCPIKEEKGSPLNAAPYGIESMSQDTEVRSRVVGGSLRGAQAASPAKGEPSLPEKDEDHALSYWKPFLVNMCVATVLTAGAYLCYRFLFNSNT
Source text: The PTP1b cDNA was amplified from human placenta single strand cDNA (Clontech RNA) using the following oligonucleotides: 5′oligo: 5′-[…] (SEQ ID NO: 4) 3′oligo: 5′-[…] (SEQ ID NO: 5) It was subsequently ligated into pFasBac G2TBamH1Xba-1 sites.
as §1, §2, §3, §4, §5, §6

IC50 (PTP SHP2) [µM]	IC50 (PTP EPSILON) [µM]	IC50 (PTP 1B) [µM]	SMILES
> 100	> 100	> 100	Cn1c(C(=O)O)cc2cc(NS(=O)(=O)C(F)(F)F)ccc21 [Example 78, 1-Methyl-5-trifluoromethanesulfonylamino-1H-indole-2-carboxylic acid]
> 100	> 20	> 100	Cc1cc2cc(NS(=O)(=O)C(F)(F)F)ccc2n1CC(=O)O [Example 79, (2-Methyl-5-trifluoromethanesulfonylamino-indol-1-yl)-acetic acid]
58.1	26.9	> 20	Cn1c(C(=O)Nc2ccccc2)cc2cc(NS(=O)(=O)C(F)(F)F)ccc21 [Example 80, 1-Methyl-5-trifluoromethanesulfonylamino-1H-indole-2-carboxylic acid phenylamide]
6.2	4.4	14.6	O=C(Nc1ccccc1)c1cc2cc(NS(=O)(=O)C(F)(F)F)ccc2[nH]1 [Example 81, 5-Trifluoromethanesulfonylamino-1H-indole-2-carboxylic acid phenylamide]
87.7	7.7	> 20	Cn1c(C(=O)Nc2cccc(C(=O)O)c2)cc2cc(NS(=O)(=O)C(F)(F)F)ccc21 [Example 82, 3-[(1-Methyl-5-trifluoromethanesulfonylamino-1H-indole-2-carbonyl)-amino]-benzoic acid]
58.5	8.4	> 20	O=C(O)c1cccc(NC(=O)c2cc3cc(NS(=O)(=O)C(F)(F)F)ccc3[nH]2)c1 [Example 83, 3-[(5-Trifluoromethanesulfonylamino-1H-indole-2-carbonyl)-amino]-benzoic acid]
62	16.1	> 20	O=C(O)c1ccc(NC(=O)c2cc3cc(NS(=O)(=O)C(F)(F)F)ccc3[nH]2)cc1 [Example 84, 4-[(5-Trifluoromethanesulfonylamino-1H-indole-2-carbonyl)-amino]-benzoic acid]
> 100	> 20	> 20	Cc1cc2cc(NS(=O)(=O)C(F)(F)F)ccc2n1CC(=O)Nc1cccc(C(=O)O)c1 [Example 86, 3-[2-(2-Methyl-5-trifluoromethanesulfonylamino-indol-1-yl)-acetylamino]-benzoic acid]
97	> 20	> 20	Cc1cc2cc(NS(=O)(=O)C(F)(F)F)ccc2n1CC(=O)NCc1ccc(C(=O)O)cc1 [Example 87, 4-{[2-(2-Methyl-5-trifluoromethanesulfonylamino-indol-1-yl)-acetylamino]-methyl}-benzoic acid]
31.4	8.2	> 20	Cc1cc2cc(NS(=O)(=O)C(F)(F)F)ccc2n1CC(=O)OC(C)(C)C [Example 88, (2-Methyl-5-trifluoromethanesulfonylamino-indol-1-yl)-acetic acid tert-butyl ester]
69	> 20	> 20	CCOC(=O)c1cc2cc(NS(=O)(=O)C(F)(F)F)ccc2n1C [Example 89, 1-Methyl-5-trifluoromethanesulfonylamino-1H-indole-2-carboxylic acid ethyl ester]
64	35.9	> 20	O=C(O)c1ccc2cc(NS(=O)(=O)C(F)(F)F)ccc2c1 [Example 90, 6-Trifluoromethanesulfonylamino-naphthalene-2-carboxylic acid]
25.9	> 20	> 20	O=C(O)c1ccc2cc(CN(Cc3ccc4cc(C(=O)O)ccc4c3)S(=O)(=O)C(F)(F)F)ccc2c1 [Example 91, N,N-Bis[(6-carboxyl-naphthalen-2-yl)methyl]trifluoromethanesulfonamide]
48	5.1	> 20	CN(Cc1ccc2cc(C(=O)O)ccc2c1)S(=O)(=O)C(F)(F)F [Example 92, 6-[(Methyl-trifluoromethanesulfonyl-amino)-methyl]-naphthalene-2-carboxylic acid]
15.8	7.4	15.9	CN(Cc1ccc2cc(C(=O)Nc3cccc(C(=O)O)c3)ccc2c1)S(=O)(=O)C(F)(F)F [Example 93, 3-({6-[(Methyl-trifluoromethanesulfonyl-amino)-methyl]-naphthalene-2-carbonyl}-amino)-benzoic acid]
> 20	> 100	> 100	CCOC(=O)c1cc2cc(NS(=O)(=O)C(F)(F)F)ccc2n1CC(=O)O [Example 95, 1-Carboxymethyl-5-trifluoromethanesulfonylamino-1H-indole-2-carboxylic acid ethyl ester]
6.1	62.9	44.2	O=C(O)Cn1c(C(=O)O)cc2cc(NS(=O)(=O)C(F)(F)F)ccc21 [Example 97, 1-Carboxymethyl-5-trifluoromethanesulfonylamino-1H-indole-2-carboxylic acid]
> 20	41.6	> 100	CCOC(=O)c1cc2cc(N(S(=O)(=O)C(F)(F)F)S(=O)(=O)C(F)(F)F)ccc2n1CC(=O)O [Example 98, 1-Carboxymethyl-5-(N,N-ditrifluoromethanesulfonyl)amino-1H-indole-2-carboxylic acid ethyl ester]

SMILES	IC50 (PTP SHP2) [µM]	IC50 (PTP EPSILON) [µM]	IC50 (PTP 1B) [µM]
CCOC(=O)c1cc2cc(NS(=O)(=O)C(F)(F)F)ccc2n1CC(=O)OC(C)(C)C [Example 94, 1-tert-Butoxycarbonylmethyl-5-trifluoromethanesulfonylamino-1H-indole-2-carboxylic acid ethyl ester]	1.5	4.2	12
CC(C)(C)OC(=O)Cn1c(C(=O)O)cc2cc(NS(=O)(=O)C(F)(F)F)ccc21 [Example 96, 1-tert-Butoxycarbonylmethyl-5-trifluoromethanesulfonylamino-1H-indole-2-carboxylic acid]	9.1	31.2	34.7
